Laboratory results reported in PMC5124248, “Antitumor activity of TY-011 against gastric cancer by inhibiting Aurora A, Aurora B and VEGFR2 kinases” (Journal of Experimental & Clinical Cancer Research : CR, 2016).
Where “and” joins values, the source holds several entries; their conditions need not be identical. Equal values may be shown once. Entries after “also recorded” stand apart in the source; their conditions may differ. Read-outs that look alike come from different tables or passages of the source. Marks after values point to notes of the source that are not given here.

Experiments:
SGC-7901 cells = assay: CCK-8 cell proliferation assay, SGC-7901; format: cell-based; conditions: Homo sapiens; SGC-7901, CCK-8, Fig. 3
Experimental: (§1) During the logarithmic growth phase, each cell line was seeded in a 96-well tissue culture plate (Thermo Fisher Scientific, Waltham, MA, USA) at a predetermined density in complete medium, attached overnight and treated with compound for the indicated time. The medium was discarded and replaced with 10% CCK-8 (Dojindo, Kumamoto, Japan) in complete medium, then incubated the plates for another 2 h. The OD450 was measured with SpectraMax M5 (Molecular Devices, CA, USA). A background absorbance of ODblank was subtracted from all wells. The survival rate was determined with following formula: Survival rate (%) = ODcompound/ODDMSO × 100%. The IC50 values were calculated by concentration − response curve fitting using the four parameter method.

Aurora B = molecular target: T1, Aurora B (Homo sapiens, UniProt Q96GD4); assay: HTRF KinEASE-STK kinase assay, Aurora B; format: biochemical
T1 construct: gift from Professor Jia Li, Shanghai Institute of Materia Medica/Chinese Academy of Sciences
Text: (§2) The inhibition of TY-011 on activity of Aurora A, Aurora B and VEGFR2 was characterized by HTRF® KinEASE™-STK/TK kit according to the manufacturer’s instructions (Cisbio Assays, Codolet, France). Aurora A and Aurora B were gifts from Professor Jia Li, Shanghai Institute of Materia Medica/Chinese Academy of Sciences. VEGFR2 was purchased from Carna Biosciences (Kobe, Japan).

MGC-803 cells [1] = assay: Cell cycle analysis by flow cytometry, MGC-803; format: cell-based, human
Experimental: Cell cycle distribution was determined by flow cytometry measurement of DNA content after cells were incubated with RNase A (50 μg/ml) and propidium iodide (50 μg/ml). The cellular DNA content was measured on a flow cytometer (Guava EasyCyte 6HT-2 L, Merck Millipore, Billerica, MA, USA). The percentage of each population was analyzed using the InCyte software. At least 20 000 cells were analyzed for each data point.

SNU-16 cells = assay: CCK-8 cell proliferation assay, SNU-16; format: cell-based; conditions: Homo sapiens; SNU-16, CCK-8, Fig. 3
Experimental: as §1

MGC-803 cells [2] = assay: Annexin V/PI apoptosis analysis, MGC-803; format: cell-based, human; conditions: 48 h (7.8% control)
Experimental: Apoptosis was detected by FITC Annexin V Apoptosis Detection Kit I according to the manufacturer’s instructions (Dojindo, Kumamoto, Japan) to determine the phosphatidyl serine exposure. Apoptotic cells were quantified by a flow cytometer (Guava EasyCyte 6HT-2 L, Merck Millipore, Billerica, MA, USA) using the InCyte software. At least 10 000 cells were analyzed for each data point.

HUVECs [3] = assay: VEGF- or FBS-induced HUVEC proliferation assay (CCK-8); format: cell-based, human; conditions: for IC50: Homo sapiens, HUVEC
Experimental: as §1
In VEGF-induced HUVEC proliferation assay, HUVECs cells were seeded in a 96-well tissue culture plate at a predetermined density in HUVEC basic medium with 0.5% FBS. After the cells attached, cells were treated with different concentration of TY-011 in the presence of 50 ng/ml VEGF165 (R&D systems, Minneapolis, MN, USA) or 10% FBS. The CCK-8 assay as above was used for determination of cell viability.

VEGFR2 = molecular target: T2, VEGFR2 (Homo sapiens, UniProt P35968); assay: HTRF KinEASE-TK kinase assay, VEGFR2; format: biochemical; conditions: mean ± SD of three independent experiments
T2 construct: purchased Carna Biosciences (Kobe, Japan)
Text: as §2

HUVECs [4] = assay: HUVEC growth inhibition, 6 h, CCK-8; format: cell-based, human; conditions: various concentrations
Experimental: as §1

MGC-803 cells [5] = assay: CCK-8 cell proliferation assay, MGC-803; format: cell-based; conditions: Homo sapiens
Experimental: as §1

human MGC-803 xenograft = assay: Antitumor activity in vivo, MGC-803 xenograft in nude mice; design: species or system BALB/c nu/nu mice; conditions: for Inhibition rate (%): by tumor weight; for Body weight (g) End / Body weight (g) Start / Tumor volume (mm^3) End / Tumor volume (mm^3) Start / Tumor weight: mean ± SEM; for Tumor weight: control 0.79 g
Experimental: The animals were housed in specific pathogen-free (SPF) conditions at Key Laboratory of Brain Functional Genomics, Ministry of Education, and were acclimatized for a week prior to use. […] When the tumors reached a mean group size of 100 ~ 150 mm^3, the mice were randomized into control and treatment groups to receive treatment accordingly. […] The tumor growth was recorded with the measurement of length (L) and width (W) by caliper every other day, and calculated as tumor volume (V) = L × W^2/2. Meanwhile, the body weights of mice were recorded. The tumor volume at day n was expressed as relative tumor volume (RTV) according to the following formula: RTV% = (TVn/TV0) ×100%, where TVn is the tumor volume at day n and TV0 is the tumor volume at day 0. The therapeutic effect of treatment was calculated with formula T/C (%) = mean RTV of the treated group/mean RTV of the control group × 100%. […] The tumor regression of individual mouse was defined as the tumor volume at the end was less than the tumor volume when treatment was initiated.

[6] = tested on: 5 gastric cancer cell lines; assay: CCK-8 cell proliferation assay, panel of 5 gastric cancer cell lines; format: cell-based; conditions: Homo sapiens; range over SNU-16, MKN-45, MGC-803, SGC-7901, AGS; read-out: IC50 values across 5 gastric cancer cell lines
Experimental: as §1

[7] = 3 mg/kg oral once a day for 13 days
[8] = 6 mg/kg oral once a day for 13 days
[9] = 9 mg/kg oral once a day for 13 days

T1 sequence (Q96GD4 whole entry): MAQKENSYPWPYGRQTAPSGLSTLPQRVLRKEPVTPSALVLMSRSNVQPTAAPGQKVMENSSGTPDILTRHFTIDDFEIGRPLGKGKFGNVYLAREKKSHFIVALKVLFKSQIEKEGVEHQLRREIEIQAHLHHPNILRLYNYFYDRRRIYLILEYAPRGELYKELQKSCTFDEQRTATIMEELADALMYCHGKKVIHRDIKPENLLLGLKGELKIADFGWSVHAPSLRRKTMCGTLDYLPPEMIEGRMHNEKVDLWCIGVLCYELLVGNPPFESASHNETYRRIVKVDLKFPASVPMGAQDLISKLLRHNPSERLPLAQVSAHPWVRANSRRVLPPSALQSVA
T2 sequence (P35968 790-1356 limits assumed): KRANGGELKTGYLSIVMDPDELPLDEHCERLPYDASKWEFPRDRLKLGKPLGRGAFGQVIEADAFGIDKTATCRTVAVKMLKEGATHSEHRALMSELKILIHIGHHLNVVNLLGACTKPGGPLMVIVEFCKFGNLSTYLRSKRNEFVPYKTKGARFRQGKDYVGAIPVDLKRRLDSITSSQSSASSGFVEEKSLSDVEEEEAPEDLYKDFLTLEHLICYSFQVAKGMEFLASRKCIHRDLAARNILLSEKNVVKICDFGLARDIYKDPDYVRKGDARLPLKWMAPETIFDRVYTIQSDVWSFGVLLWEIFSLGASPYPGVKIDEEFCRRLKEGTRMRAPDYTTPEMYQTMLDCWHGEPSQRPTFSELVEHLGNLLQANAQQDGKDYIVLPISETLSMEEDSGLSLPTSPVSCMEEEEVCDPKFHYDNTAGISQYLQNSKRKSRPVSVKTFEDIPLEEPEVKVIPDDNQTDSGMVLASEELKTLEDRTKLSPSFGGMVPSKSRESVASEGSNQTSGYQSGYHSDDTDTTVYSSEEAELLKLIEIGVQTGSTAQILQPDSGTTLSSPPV

SMILES: CCc1cc2c(cn1)C(c1ccccc1Cl)=Nc1c(n[nH]c1C)N2 [TY-011, 9-(2-chloro-phenyl)-6-ephyl-1-methyl-2,4-dihydro-2,3,4,7,10-pentaaza-benzo[f]azulene]
- IC50 (SGC-7901 cells): 570 ± 30 nM
- IC50 (Aurora B; Table S1, read-out: IC50 Aurora B): 90 nM
- IC50 (Aurora B; mean ± SD of three independent experiments, read-out: Aurora B IC50): 93.9 ± 33.7 nM
- G2/M phase cells (MGC-803 cells [1]; MGC-803, 0.2 μM, 12 h (from 26.4%)): 51.4%
- cells with >4 N DNA content (MGC-803 cells [1]; MGC-803, 0.2 μM, 48 h): 39.8%
- proportion of cells with >4 N DNA content (MGC-803 cells [1]; MGC-803, 0.4 μM, 24 h (4.3% no treatment)): 29.5%
- proportion of G2/M phase cells (MGC-803 cells [1]; MGC-803, 0.4 μM, 24 h (28.8% no treatment)): 65.0%
- IC50 (SNU-16 cells): 90 ± 20 nM
- apoptosis (MGC-803 cells [2]; MGC-803, 0.1 μM): 39.3%
- apoptosis (MGC-803 cells [2]; MGC-803, 0.2 μM): 78.2%
- apoptosis (MGC-803 cells [2]; MGC-803, 0.4 μM): 86.1%
- IC50 in cells treated with VEGF lower than in cells treated with FBS (HUVECs [3]; 72 h): 13 fold
- IC50 (HUVECs [3]; 50 ng/ml VEGF165, 72 h, read-out: VEGF IC50): 461 ± 61.8 nM
- IC50 (HUVECs [3]; 10% FBS, 72 h, read-out: FBS IC50): 6100 ± 16.4 nM
- IC50 (VEGFR2): 103 ± 6.2 nM
- HUVEC proliferation under tube formation treatment condition (HUVECs [4]): didn’t affect HUVEC proliferation
- IC50 (MGC-803 cells [5]; MGC-803, Table S1, proliferation, read-out: IC50 MGC-803): 210 nM
- IC50 (MGC-803 cells [5]; MGC-803, CCK-8, Fig. 3, read-out: IC50): 190 ± 20 nM
- T/C (%) (human MGC-803 xenograft; [7]): 54.55%
- TGI (%) (human MGC-803 xenograft; [7]): 59.41%
- Inhibition rate (%) (human MGC-803 xenograft; [7]): 64.9%
- Body weight (g) End (human MGC-803 xenograft; [7]): 21.8 ± 0.1 g
- Body weight (g) Start (human MGC-803 xenograft; [7]): 20.8 ± 0.1 g
- Tumor volume (mm^3) End (human MGC-803 xenograft; [7]): 433.6 ± 16.2*** mm^3
- Tumor volume (mm^3) Start (human MGC-803 xenograft; [7]): 192.8 ± 7.1 mm^3
- Tumor weight (human MGC-803 xenograft; [7]): 0.28 g and 0.28 ± 0.02 g
- T/C (%) (human MGC-803 xenograft; [8]): 21.82%
- TGI (%) (human MGC-803 xenograft; [8]): 103.77%
- tumor regression (share of mice) (human MGC-803 xenograft; 6 mg/kg oral once a day for 13 days, 6/8 mice): 75%
- Inhibition rate (%) (human MGC-803 xenograft; [8]): 87.7%
- Body weight (g) End (human MGC-803 xenograft; [8]): 20.3 ± 0.2 g
- Body weight (g) Start (human MGC-803 xenograft; [8]): 20.9 ± 0.1 g
- Tumor volume (mm^3) End (human MGC-803 xenograft; [8]): 168.8 ± 7.1*** mm^3
- Tumor volume (mm^3) Start (human MGC-803 xenograft; [8]): 191.2 ± 6.2 mm^3
- Tumor weight (human MGC-803 xenograft; [8]): 0.10 g and 0.10 ± 0.01 g
- T/C (%) (human MGC-803 xenograft; [9]): 14.53%
- TGI (%) (human MGC-803 xenograft; [9]): 113.09%
- tumor regression (share of mice) (human MGC-803 xenograft; 9 mg/kg oral once a day for 13 days, 8/8 mice): 100%
- Inhibition rate (%) (human MGC-803 xenograft; [9]): 89.0%
- Body weight (g) End (human MGC-803 xenograft; [9]): 21.7 ± 0.1 g
- Body weight (g) Start (human MGC-803 xenograft; [9]): 21.4 ± 0.1 g
- Tumor volume (mm^3) End (human MGC-803 xenograft; [9]): 111.4 ± 3.6*** mm^3
- Tumor volume (mm^3) Start (human MGC-803 xenograft; [9]): 189.0 ± 4.9 mm^3
- Tumor weight (human MGC-803 xenograft; [9]): 0.09 g and 0.09 ± 0.01 g
- drug-related deaths and body weight of mice (human MGC-803 xenograft; 3, 6 and 9 mg/kg oral once a day for 13 days): did not affect the body weight of mice; also recorded: did not cause drug-related deaths or any loss in body weight of mice
- damages to vital organs (heart, liver, spleen, lung and kidney) or clinical signs (human MGC-803 xenograft; mice treated with TY-011, data not shown): no obvious damages to vital organs
- IC50 [6]: 90 to 960 nM
